EC50, Snhg1 fold change and IC50 data for eleven compounds are collected here from US20260109715A1, “IMIDAZOPYRIDINE DERIVATIVES WITH BICYCLIC STRUCTURE” (PUBLIC UNIVERSITY CORPORATION YOKOHAMA CITY UNIVERSITY, priority 2022, published 2026).

Assay [1] concerns Snhg1 transcript (NMD target gene) in EMT6 murine breast cancer cell line. Put plainly: Measurement of NMD inhibitory activity in cells (increase in Snhg1 transcript, real-time PCR). Also noted: species or system mouse. The following applies: Mus musculus, 6 hours treatment, concentration giving 1/2 of maximum Snhg1 fold change of positive control, read-out: Test Example 2 Cell-based Snhg1 EC50. In short, it runs like this:
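EMT6 cells treated with serially diluted compound (2% DMSO final) for 6 h; Snhg1 transcript quantified by real-time PCR (ΔΔCT, Tbp endogenous control, untreated wells set to 1). EC50 taken as concentration giving half the maximum fold change of a known NMD inhibitor positive control.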
(In general: Real-time PCR tracks product formation cycle by cycle.)

In assay [2] the test system is Snhg1 transcript in tumor tissues of mice subcutaneously implanted with EMT6 murine breast cancer cell line. Put plainly: Evaluation of NMD inhibitory activity in vivo (Snhg1 transcript in EMT6 tumor tissue after oral administration). Conditions: 6 hours after administration, BALB/c mice. In outline:
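BALB/c mice bearing subcutaneous EMT6 tumours (engraftment confirmed day 7) dosed orally; tumours excised 6 h post-dose. Snhg1 RNA quantified by qRT-PCR, ΔΔCT with Gapdh as endogenous control, expressed relative to 0.5% methylcellulose vehicle group set at 1.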

The target of the next assay is human SMG1 enzyme (Homo sapiens, UniProt Q96Q15). As to the kind of experiment: Measurement of SMG1 kinase activity (ADP-Glo Kinase Assay). The following applies: purified human SMG1 enzyme 5 nM, Upf1 peptide substrate, ATP 4 μM; qAC50 synonymous with IC50; read-out: Test Example 1 ADP-Glo IC50. The format is biochemical. In short, it runs like this: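 Purified human SMG1 (5 nM) preincubated with compound (1% DMSO) 15 min at room temperature in HEPES pH 7.5 buffer with MnCl2, then reacted 60 min with Upf1 peptide (8 μg/mL) and 4 μM ATP. ADP formed measured by ADP-Glo luminescence; IC50 by 4-parameter logistic fit, normalised to DMSO (0%) and enzyme-free (−100%) wells.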
Chain of human SMG1 enzyme (Q96Q15 whole entry): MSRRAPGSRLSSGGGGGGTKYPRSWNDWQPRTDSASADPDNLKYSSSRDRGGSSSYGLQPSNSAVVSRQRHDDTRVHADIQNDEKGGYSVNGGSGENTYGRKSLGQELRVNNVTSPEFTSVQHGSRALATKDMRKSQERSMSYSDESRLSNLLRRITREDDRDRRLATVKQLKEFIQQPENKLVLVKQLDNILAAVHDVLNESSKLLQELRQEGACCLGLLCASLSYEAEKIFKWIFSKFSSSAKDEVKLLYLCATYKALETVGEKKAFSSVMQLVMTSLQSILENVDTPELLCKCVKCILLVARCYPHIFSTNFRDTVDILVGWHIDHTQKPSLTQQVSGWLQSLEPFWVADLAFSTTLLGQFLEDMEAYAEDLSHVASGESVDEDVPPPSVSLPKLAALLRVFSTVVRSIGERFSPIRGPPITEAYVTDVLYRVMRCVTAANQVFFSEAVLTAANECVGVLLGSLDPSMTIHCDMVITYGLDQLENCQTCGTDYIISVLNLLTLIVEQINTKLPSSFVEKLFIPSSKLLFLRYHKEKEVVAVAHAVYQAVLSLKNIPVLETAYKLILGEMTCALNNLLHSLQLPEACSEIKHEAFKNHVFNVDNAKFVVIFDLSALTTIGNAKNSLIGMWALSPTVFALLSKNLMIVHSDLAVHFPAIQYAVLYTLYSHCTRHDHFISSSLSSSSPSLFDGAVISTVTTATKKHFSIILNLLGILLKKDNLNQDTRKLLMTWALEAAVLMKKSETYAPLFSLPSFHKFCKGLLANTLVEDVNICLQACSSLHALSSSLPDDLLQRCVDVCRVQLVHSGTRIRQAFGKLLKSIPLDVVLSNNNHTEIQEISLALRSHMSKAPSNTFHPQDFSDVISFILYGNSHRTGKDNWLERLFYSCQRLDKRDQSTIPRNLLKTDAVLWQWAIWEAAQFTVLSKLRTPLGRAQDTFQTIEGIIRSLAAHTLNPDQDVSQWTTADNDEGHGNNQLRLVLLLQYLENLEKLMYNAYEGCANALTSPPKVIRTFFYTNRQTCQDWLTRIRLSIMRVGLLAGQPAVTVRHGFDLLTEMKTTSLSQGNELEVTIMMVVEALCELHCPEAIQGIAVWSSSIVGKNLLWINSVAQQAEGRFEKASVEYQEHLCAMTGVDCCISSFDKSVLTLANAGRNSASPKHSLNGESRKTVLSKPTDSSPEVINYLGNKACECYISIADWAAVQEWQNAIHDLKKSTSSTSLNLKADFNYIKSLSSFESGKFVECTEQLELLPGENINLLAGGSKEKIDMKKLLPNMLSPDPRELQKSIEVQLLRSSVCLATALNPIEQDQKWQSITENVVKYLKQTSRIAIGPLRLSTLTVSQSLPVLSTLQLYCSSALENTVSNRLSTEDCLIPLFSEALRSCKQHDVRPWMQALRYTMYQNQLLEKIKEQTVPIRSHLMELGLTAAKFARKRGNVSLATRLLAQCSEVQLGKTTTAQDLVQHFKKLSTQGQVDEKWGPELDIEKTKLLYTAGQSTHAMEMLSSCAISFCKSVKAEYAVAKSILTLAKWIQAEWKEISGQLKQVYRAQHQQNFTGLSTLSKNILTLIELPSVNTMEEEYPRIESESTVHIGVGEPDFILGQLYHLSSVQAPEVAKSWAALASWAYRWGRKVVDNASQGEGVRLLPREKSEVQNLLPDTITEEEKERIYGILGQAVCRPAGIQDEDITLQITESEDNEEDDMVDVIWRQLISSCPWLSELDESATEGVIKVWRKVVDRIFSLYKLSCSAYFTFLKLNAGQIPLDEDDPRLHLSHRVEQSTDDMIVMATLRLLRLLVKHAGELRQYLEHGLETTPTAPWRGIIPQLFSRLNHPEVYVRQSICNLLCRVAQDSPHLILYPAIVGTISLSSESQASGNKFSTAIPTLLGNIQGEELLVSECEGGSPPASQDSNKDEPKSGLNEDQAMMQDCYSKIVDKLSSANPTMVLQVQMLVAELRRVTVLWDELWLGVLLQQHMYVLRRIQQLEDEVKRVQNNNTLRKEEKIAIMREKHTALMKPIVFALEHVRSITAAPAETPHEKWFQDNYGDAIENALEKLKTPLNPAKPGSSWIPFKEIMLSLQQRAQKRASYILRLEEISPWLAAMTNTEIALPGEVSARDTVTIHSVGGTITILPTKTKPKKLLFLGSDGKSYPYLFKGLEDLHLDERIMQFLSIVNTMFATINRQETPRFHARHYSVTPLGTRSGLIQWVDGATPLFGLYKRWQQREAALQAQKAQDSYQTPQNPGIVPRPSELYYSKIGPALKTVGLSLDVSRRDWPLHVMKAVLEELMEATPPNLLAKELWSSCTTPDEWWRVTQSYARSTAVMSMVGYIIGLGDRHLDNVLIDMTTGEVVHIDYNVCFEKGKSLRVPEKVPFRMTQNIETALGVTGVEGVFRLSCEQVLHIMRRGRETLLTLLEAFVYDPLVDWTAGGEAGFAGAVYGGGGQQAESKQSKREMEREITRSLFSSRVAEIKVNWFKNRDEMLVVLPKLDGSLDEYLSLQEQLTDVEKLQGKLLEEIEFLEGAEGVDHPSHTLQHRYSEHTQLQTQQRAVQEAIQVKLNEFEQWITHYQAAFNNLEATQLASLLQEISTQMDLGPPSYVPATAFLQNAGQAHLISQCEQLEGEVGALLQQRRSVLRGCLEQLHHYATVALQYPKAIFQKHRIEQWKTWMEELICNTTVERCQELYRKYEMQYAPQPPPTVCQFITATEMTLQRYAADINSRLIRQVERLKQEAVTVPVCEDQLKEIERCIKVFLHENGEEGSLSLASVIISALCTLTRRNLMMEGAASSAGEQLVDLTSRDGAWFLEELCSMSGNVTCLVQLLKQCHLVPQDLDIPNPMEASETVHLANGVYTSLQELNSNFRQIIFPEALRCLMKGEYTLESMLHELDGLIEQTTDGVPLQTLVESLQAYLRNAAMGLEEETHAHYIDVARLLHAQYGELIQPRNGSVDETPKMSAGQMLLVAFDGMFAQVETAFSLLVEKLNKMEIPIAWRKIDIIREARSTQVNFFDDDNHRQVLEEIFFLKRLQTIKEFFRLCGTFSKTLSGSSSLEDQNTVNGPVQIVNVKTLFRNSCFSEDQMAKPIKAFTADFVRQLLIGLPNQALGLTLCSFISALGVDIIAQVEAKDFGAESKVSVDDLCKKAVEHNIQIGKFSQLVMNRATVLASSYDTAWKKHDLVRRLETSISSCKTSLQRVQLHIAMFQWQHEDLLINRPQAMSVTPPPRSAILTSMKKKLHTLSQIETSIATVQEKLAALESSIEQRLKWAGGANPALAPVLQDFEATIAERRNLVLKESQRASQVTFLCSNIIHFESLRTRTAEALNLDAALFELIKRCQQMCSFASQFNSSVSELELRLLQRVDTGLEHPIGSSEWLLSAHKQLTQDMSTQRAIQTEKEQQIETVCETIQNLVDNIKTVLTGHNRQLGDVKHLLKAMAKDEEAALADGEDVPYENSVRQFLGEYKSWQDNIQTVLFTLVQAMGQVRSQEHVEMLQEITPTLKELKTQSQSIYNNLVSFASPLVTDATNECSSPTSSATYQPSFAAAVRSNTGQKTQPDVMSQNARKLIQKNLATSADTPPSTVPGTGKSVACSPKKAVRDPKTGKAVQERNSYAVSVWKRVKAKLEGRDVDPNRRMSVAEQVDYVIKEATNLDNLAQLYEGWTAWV
Background: In ADP-Glo the light output rises with the ADP produced.

Usually EC50 stands for the concentration at which the effect is half-maximal. As usually defined, the IC50 is the concentration that inhibits the measured activity by half.

Consider `COc1ncccc1-c1nccc2[nH]c(=O)c(-c3nc4c(NCC(F)(F)F)nc(Cl)cc4[nH]3)cc12.CS(=O)(=O)O` [Example 142, 3-{6-chloro-4-[(2,2,2-trifluoroethyl)amino]-1H-imidazo[4,5-c]pyridin-2-yl}-5-(2-methoxypyridin-3-yl)-1,6-naphthyridin-2(1H)-one methanesulfonate], for which the 50% effective concentration (EC50) in assay [1] came out at 3.7 nM. In assay [2] (10 mg/kg oral), this compound showed a Snhg1 fold change of 11. The IC50 on human SMG1 enzyme is 0.63 nM.
Taken in the same sequence, the figures for `COc1ncccc1-c1nccc2[nH]c(=O)c(-c3nc4c(NCC(F)F)nc(Cl)cc4[nH]3)cc12.CS(=O)(=O)O` [Example 143, 3-{6-chloro-4-[(2,2-difluoroethyl)amino]-1H-imidazo[4,5-c]pyridin-2-yl}-5-(2-methoxypyridin-3-yl)-1,6-naphthyridin-2(1H)-one methanesulfonate] were 12 nM, 8.5 and 0.85 nM.
For the compound `COc1cc(OC)c(-c2nccc3[nH]c(=O)c(-c4nc5c(C)nc(Cl)cc5[nH]4)cc23)cn1.CS(=O)(=O)O` [Example 144, 3-(6-chloro-4-methyl-1H-imidazo[4,5-c]pyridin-2-yl)-5-(4,6-dimethoxypyridin-3-yl)-1,6-naphthyridin-2(1H)-one methanesulfonate], the EC50 in assay [1] amounted to 19 nM. The Snhg1 fold change in assay [2] (30 mg/kg oral) is listed as 4.8. Further, the IC50 at human SMG1 enzyme worked out at 0.95 nM.
`CCc1nc(Cl)cc2[nH]c(-c3cc4c(-c5cnc(C(F)(F)F)cc5OC)nccc4[nH]c3=O)nc12.CS(=O)(=O)O` [Example 145, 3-(6-chloro-4-ethyl-1H-imidazo[4,5-c]pyridin-2-yl)-5-[4-methoxy-6-(trifluoromethyl)pyridin-3-yl]-1,6-naphthyridin-2(1H)-one methanesulfonate]: in assay [1], the EC50 was 3.1 nM. In assay [2] (10 mg/kg oral), this compound gave a Snhg1 fold change of 8.9. For the same compound, the IC50 at human SMG1 enzyme is 1.2 nM.
Taken in the same sequence, the figures for `CCc1nc(Cl)cc2[nH]c(-c3cc4c(-c5cnc(OC(F)F)cc5OC)nccc4[nH]c3=O)nc12.CS(=O)(=O)O` [Example 146, 3-(6-chloro-4-ethyl-1H-imidazo[4,5-c]pyridin-2-yl)-5-[6-(difluoromethoxy)-4-methoxypyridin-3-yl]-1,6-naphthyridin-2(1H)-one methanesulfonate] were 3.8 nM, 10 and 0.49 nM.
Turning to `CCc1nc(Cl)cc2[nH]c(-c3cc4c(-c5cnc(C(C)(F)F)cc5OC)nccc4[nH]c3=O)nc12.CS(=O)(=O)O` [Example 147, 3-(6-chloro-4-ethyl-1H-imidazo[4,5-c]pyridin-2-yl)-5-[6-(1,1-difluoroethyl)-4-methoxypyridin-3-yl]-1,6-naphthyridin-2(1H)-one methanesulfonate], the EC50 in assay [1] is 3.9 nM. The Snhg1 fold change in assay [2] (10 mg/kg oral) is listed as 9.5. In addition, on human SMG1 enzyme, the IC50 worked out at 0.67 nM.
For `CCc1nc(Cl)cc2[nH]c(-c3cc4c(-c5c(C)nn(C(F)F)c5C)nccc4[nH]c3=O)nc12.CS(=O)(=O)O` [Example 148, 3-(6-chloro-4-ethyl-1H-imidazo[4,5-c]pyridin-2-yl)-5-[1-(difluoromethyl)-3,5-dimethyl-1H-pyrazol-4-yl]-1,6-naphthyridin-2(1H)-one methanesulfonate], in assay [1], the half-maximal effective concentration (EC50) came out at 12 nM. Moreover, the Snhg1 fold change in assay [2] (10 mg/kg oral) is 5.8. At human SMG1 enzyme, the IC50 came to 0.73 nM.
Taken in the same sequence, the figures for `CS(=O)(=O)O.Cc1nn(C(F)F)c(C)c1-c1nccc2[nH]c(=O)c(-c3nc4c(N5CC[C@H]5C)nc(Cl)cc4[nH]3)cc12` [Example 149, 3-{6-chloro-4-[(2R)-2-methylazetidin-1-yl]-1H-imidazo[4,5-c]pyridin-2-yl}-5-[1-(difluoromethyl)-3,5-dimethyl-1H-pyrazol-4-yl]-1,6-naphthyridin-2(1H)-one methanesulfonate] were 0.61 nM, 12 and 0.67 nM.
On to `CS(=O)(=O)O.Cc1c(-c2nccc3[nH]c(=O)c(-c4nc5c(N[C@H](C)C(F)(F)F)nc(Cl)cc5[nH]4)cc23)cnn1C` [Example 152, 3-(6-chloro-4-{[(2R)-1,1,1-trifluoropropan-2-yl]amino}-1H-imidazo[4,5-c]pyridin-2-yl)-5-(1,5-dimethyl-1H-pyrazol-4-yl)-1,6-naphthyridin-2(1H)-one methanesulfonate], for which, in assay [1], the EC50 was found to be 4 nM. This compound yielded a Snhg1 fold change in assay [2] (10 mg/kg oral) of 7.9. Moreover, the IC50 at human SMG1 enzyme came out at 1.1 nM.
Taken in the same sequence, the figures for `CS(=O)(=O)O.Cc1c(-c2nccc3[nH]c(=O)c(-c4nc5c(C6CCOCC6)nc(Cl)cc5[nH]4)cc23)c(C2CC2)nn1C(F)F` [Example 153, 3-[6-chloro-4-(tetrahydro-2H-pyran-4-yl)-1H-imidazo[4,5-c]pyridin-2-yl]-5-[3-cyclopropyl-1-(difluoromethyl)-5-methyl-1H-pyrazol-4-yl]-1,6-naphthyridin-2(1H)-one methanesulfonate] were 5.1 nM, 6.9 and 0.96 nM.
With `CCc1nc(Cl)cc2[nH]c(N3Cc4c(ccnc4-c4cnc(C5CC5)cc4OC)NC3=O)nc12.CS(=O)(=O)O` [Example 154, 3-(6-chloro-4-ethyl-1H-imidazo[4,5-c]pyridin-2-yl)-5-(6-cyclopropyl-4-methoxypyridin-3-yl)-3,4-dihydropyrido[4,3-d]pyrimidin-2(1H)-one methanesulfonate], the half-maximal effective concentration (EC50) in assay [1] turned out to be 0.5 nM. Also, the Snhg1 fold change in assay [2] (10 mg/kg oral) was 10. The IC50 on human SMG1 enzyme was 0.53 nM.
